We go through 23 compounds from patent US20110256238A1, “WOOD PRESERVATIVE AND WOOD PROCESSING METHOD” (SDS BIOTECH K.K., priority 2008, published 2011).

One data set concerns Trametes versicolor. The data set can be described thus: Agar medium colony growth inhibition test on Trametes versicolor, with Colby synergy calculation. Format: cell-based. As to conditions: single compound, 0.2 ppm, potato dextrose agar, 25° C., seventh day. The protocol:
Each of 1% w/v dimethylsulfoxide solution of compound A, cyproconazole (manufactured by Wako Pure Chemical Industries, Ltd.), epoxyconazole (manufactured by Wako Pure Chemical Industries, Ltd.) and tetraconazole (manufactured by Wako Pure Chemical Industries, Ltd.) was prepared. The solutions diluted with dimethylsulfoxide were fully mixed in the sterilized potate dextrose agar medium, and 15 ml of the resultant medium was poured into a petri dish 90 mm in diameter and allowed to stand at room temperature. As a control, the potate dextrose agar medium added with dimethylsulfoxide only was also prepared. After the medium was solidified, the mycelia was scooped with the medium from the colony of Trametes versicolor as being a typical wood-decaying fungi, which had been cultivated in advance, using a cork baller 5 mm in diameter; and inoculated in the center of the test medium. The fungi was cultivated in the petri dish at 25° C., and the diameter of the colony spread from the source of inoculum was measured on the seventh day. The growth inhibition ratio by comparing the diameter of the test colony to that of the control was determined by the above-mentioned formula as an indication of the actual measured growth inhibition ratio. The theoretical efficacy ratio of the mixture of the active ingredients (i.e. theoretical growth inhibition ratio) was determined using the following Colby's formula (R. S. Colby, Weeds 15, 20-22 (1967)) to thereby be compared with the actual-measured efficacy ratio ([…]).
Colby's formula: E=x+y−x·y/100 [Formula 2]
E: theoretical efficacy ratio (theoretical growth inhibition ratio) represented by the ratio (%) to the control when the mixture of active compound B (concentration b) and C (concentration c) was used. x: efficacy ratio (growth inhibition ratio) represented by the ratio (%) to the control when active compound B was used at a concentration of b. y: efficacy ratio (growth inhibition ratio) represented by the ratio (%) to the control when active compound C was used at a concentration of c.

The test system of another data set is Coniphora puteana. The data set can be described thus: Agar medium colony growth inhibition test on Coniphora puteana. Format: cell-based. As to conditions: 0.2 ppm in potato dextrose agar, 25° C., colony diameter on the seventh day vs control. The method, then: A predetermined amount of the solutions diluted with dimethylsulfoxide were fully mixed in the sterilized potato dextrose agar medium, and 15 ml of the resultant medium was poured into a petri dish 90 mm in diameter and allowed to stand at room temperature. As a control, the potato dextrose agar medium added with dimethylsulfoxide only was also prepared. […] The fungi was cultivated in the petri dish at 25° C., and the diameter of the colony spread from the source of inoculum was measured on the seventh day. The growth inhibition ratio between the diameter of the test colony and that of the control was determined by the following formula as an indication of the degree of inhibition. Compound A apparently had greater effects on Coniphora puteana compared to the compounds which had been disclosed in the past. Growth inhibition ratio (%)={(diameter of the control colony−diameter of the test colony)/diameter of the control colony}×100 [Formula 1]

As to `Fc1ccc([C@]2(Cn3cncn3)O[C@H]2c2ccccc2Cl)cc1` (racemic) [Epoxiconazole], in the data set with Trametes versicolor, the “Actual measured growth inhibition ratio (%)” value was 24%.
In the case of `CC(C)c1cccc(NC(=O)c2ccccc2C(F)(F)F)c1` [Compound A, 3′-isopropyl-2-trifluoromethyl benzoic acid anilide], the melting point (usually the temperature, or range, at which the solid turns liquid) fell in the range of 98 to 101 °C. Moreover, the inhibition (as a rule, how much of the control response was suppressed) at 0.2 ppm with Coniphora puteana (read-out: Degree of inhibition on Coniphora puteana at 0.2 ppm) is at least 75%. The “Actual measured growth inhibition ratio (%)” value with Trametes versicolor is reported as 35%.
For `FC(F)C(F)(F)OCC(Cn1cncn1)c1ccc(Cl)cc1Cl` (stereo not shown) [Tetraconazole], in the data set on Trametes versicolor, the “Actual measured growth inhibition ratio (%)” value is reported as 25%.
Take `CC(C)Oc1cccc(NC(=O)c2ccccc2C(F)(F)F)c1` [compound 1, 3′-isopropoxy-2-trifloromethyl benzoic acid anilide]: in the data set with Coniphora puteana, the “Degree of inhibition on Coniphora puteana at 0.2 ppm” value (“Degree of inhibition” below) is reported as “▴ (inhibition ratio of 25 to 50%)”.
`Cc1ccccc1C(=O)Nc1cccc(OC(C)C)c1` [compound 2, 3′-isopropoxy-2-methyl benzoic acid anilide]: the “Degree of inhibition” value with Coniphora puteana was “▴ (inhibition ratio of 25 to 50%)”.
As for `Cc1ccccc1C(=O)Nc1cccc(C(C)C)c1` [compound 3, 3′-isopropyl-2-methyl benzoic acid anilide], the “Degree of inhibition” value in the data set on Coniphora puteana is listed as “▴ (inhibition ratio of 25 to 50%)”.
Take `CC(C)c1cccc(NC(=O)c2ccccc2I)c1` [compound 4, 3′-isopropyl-2-iodobenzoic acid anilide]: the “Degree of inhibition” value in the data set with Coniphora puteana was “▴ (inhibition ratio of 25 to 50%)”.
Take `CC(C)Oc1cccc(NC(=O)c2ccccc2I)c1` [compound 5, 3′-isopropoxy-2-iodobenzoic acid anilide]: in the data set with Coniphora puteana, the “Degree of inhibition” value was “▴ (inhibition ratio of 25 to 50%)”.
Consider `CC(C)c1cccc(NC(=O)c2ccccc2[N+](=O)[O-])c1` [compound 6, 3′-isopropyl-2-nitrobenzoic acid anilide], for which, in the data set on Coniphora puteana, the “Degree of inhibition” value is given as “x (inhibition ratio of 25% or less)”.
Take `CC(C)c1cccc(NC(=O)c2ccccc2Br)c1` [compound 7, 3′-isopropyl-2-bromobenzoic acid anilide]: the “Degree of inhibition” value in the data set with Coniphora puteana is reported as “▴ (inhibition ratio of 25 to 50%)”.
With `O=C(Nc1ccccc1)c1ccccc1C(F)(F)F` [compound 8, 2-trifloromethyl benzoic acid anilide], the “Degree of inhibition” value in the data set with Coniphora puteana is “x (inhibition ratio of 25% or less)”.
Regarding `CC(C)c1ccccc1NC(=O)c1ccccc1C(F)(F)F` [compound 9, 2′-isopropyl-2-trifloromethyl benzoic acid anilide], the “Degree of inhibition” value in the data set with Coniphora puteana was “x (inhibition ratio of 25% or less)”.
Consider `CC(C)c1ccc(NC(=O)c2ccccc2C(F)(F)F)cc1` [compound 10, 4′-isopropyl-2-trifloromethyl benzoic acid anilide], for which the “Degree of inhibition” value with Coniphora puteana is given as “x (inhibition ratio of 25% or less)”.
In the case of `Cc1cccc(NC(=O)c2ccccc2C(F)(F)F)c1` [compound 11, 3′-methyl-2-trifloromethyl benzoic acid anilide], the “Degree of inhibition” value in the data set with Coniphora puteana is listed as “▴ (inhibition ratio of 25 to 50%)”.
`CCc1cccc(NC(=O)c2ccccc2C(F)(F)F)c1` [compound 12, 3′-ethyl-2-trifloromethyl benzoic acid anilide]: the “Degree of inhibition” value in the data set with Coniphora puteana is “▴ (inhibition ratio of 25 to 50%)”.
The same measure, in the same setting: as for `O=C(Nc1cccc(C(F)(F)F)c1)c1ccccc1C(F)(F)F` [compound 13, 2,3′-trifluoromethyl benzoic acid anilide], the entry is “x (inhibition ratio of 25% or less)”; as for `O=C(Nc1cccc(OC(F)(F)F)c1)c1ccccc1C(F)(F)F` [compound 14, 3′-trifluoromethoxy-2-trifloromethyl benzoic acid anilide], “x (inhibition ratio of 25% or less)”.
With `O=C(Nc1cccc(F)c1)c1ccccc1C(F)(F)F` [compound 15, 3′-fluoro-2-trifloromethyl benzoic acid anilide], in the data set on Coniphora puteana, the “Degree of inhibition” value was “x (inhibition ratio of 25% or less)”.
Regarding `O=C(Nc1cccc(Cl)c1)c1ccccc1C(F)(F)F` [compound 16, 3′-chloro-2-trifloromethyl benzoic acid anilide], in the data set with Coniphora puteana, the “Degree of inhibition” value is “x (inhibition ratio of 25% or less)”.
For the compound `O=C(Nc1cccc(Br)c1)c1ccccc1C(F)(F)F` [compound 17, 3′-bromo-2-trifloromethyl benzoic acid anilide], in the data set on Coniphora puteana, the “Degree of inhibition” value is reported as “x (inhibition ratio of 25% or less)”.
Still for that read-out and setting: as for `O=C(Nc1cccc(I)c1)c1ccccc1C(F)(F)F` [compound 18, 3′-iodo-2-trifloromethyl benzoic acid anilide], the entry is “x (inhibition ratio of 25% or less)”; as for `Cc1ccc(C(C)C)cc1NC(=O)c1ccccc1C(F)(F)F` [compound 19, 5′-isopropyl-2′-methyl-2-trifluoromethyl benzoic acid anilide], “x (inhibition ratio of 25% or less)”.
In the case of `CC(C1CC1)C(O)(Cn1cncn1)c1ccc(Cl)cc1` (stereo not shown) [cyproconazole], the “Actual measured growth inhibition ratio (%)” value in the data set with Trametes versicolor is 33%.
